Laboratory results from patent publication US9730937B2, “RAF kinase modulator compounds and methods of use thereof” (AMBIT BIOSCIENCES CORPORATION, priority 2008, dated 2017).
Like-named read-outs stand apart in the source and are kept apart here.

System: panel of 290 distinct kinases (321 in the larger panel), excluding mutant variants
[1] = no asterisk: panel of 290 distinct kinases
[2] = asterisk: panel of 321 distinct kinases
[3] = kinase selectivity score, 290 distinct kinases, class symbols
[4] = kinase selectivity score, value marked * (larger kinase panel), class symbols

`COc1cc2ncnc(Oc3cccc(NC(=O)Nc4cc(C(C)(C)C)nn4-c4ccccc4C(F)(F)F)c3)c2cc1OC` [Ex 376, 1-(3-tert-butyl-1-(2-(trifluoromethyl)phenyl)-1H-pyrazol-5-yl)-3-(3-(6,7-dimethoxyquinazolin-4-yloxy)phenyl)urea] was tested, and the S35 [1] was “D (D > 0.40)”.

`COc1cc2c(Oc3cccc(NC(=O)Nc4cc(C(C)(C)C)on4)c3)ncnc2cc1OCCCN1CCS(=O)(=O)CC1` [Ex 256, 1-(5-tert-butyl-isoxazol-3-yl)-3-(3-{7-[3-(1,1-dioxo-thiomorpholin-4-yl)-propoxy]-6-methoxy-quinazolin-4-yloxy}-phenyl)-urea] was tested, and the S35 [1] was “D (D > 0.40)”.

`COCCOc1cc2ncnc(Oc3cccc(NC(=O)Nc4cc(C(C)(C)F)no4)c3)c2cc1OC` [Ex 218, 1-(3-(2-fluoropropan-2-yl)isoxazol-5-yl)-3-(3-(6-methoxy-7-(2-methoxyethoxy)quinazolin-4-yloxy)phenyl)urea] was tested, and the S35 [2] was “C* (0.20 < C ≦ 0.40)”.

In the case of `COCCOc1cc2ncnc(Oc3cccc(NC(=O)Nc4cc(C(C)(C)C)nn4-c4ccccc4)c3)c2cc1OC` [Ex 210, 1-(3-tert-butyl-1-phenyl-1H-pyrazol-5-yl)-3-(3-(6-methoxy-7-(2-methoxyethoxy)quinazolin-4-yloxy)phenyl)urea], the S35 [2] was “D* (D > 0.40)”.

With `CCOc1cc2ncnc(Sc3cccc(NC(=O)Nc4cc(C(C)(C)C)on4)c3)c2cc1OC` [Ex 50, 1-(5-tert-butylisoxazol-3-yl)-3-[3-(7-ethoxy-6-methoxyquinazolin-4-ylthio)phenyl]urea] the S35 [3] was “B (0.10 < B ≦ 0.20)”.

`COc1cc2ncnc(Oc3cccc(NC(=O)Nc4cc(C(C)(C)C)nn4-c4ccc(C(F)(F)F)cc4)c3)c2cc1OC` [Ex 373, 1-(3-tert-butyl-1-(4-(trifluoromethyl)phenyl)-1H-pyrazol-5-yl)-3-(3-(6,7-dimethoxyquinazolin-4-yloxy)phenyl)urea] was tested, and the S35 [1] was “C (0.20 < C ≦ 0.40)”.

`COCCOc1cc(NC(=O)Nc2cccc(Oc3ncnc4cc(OCCOC)c(OC)cc34)c2)cc(C(F)(F)F)c1` [Ex 117, 1-(3-(6-methoxy-7-(2-methoxyethoxy)quinazolin-4-yloxy)phenyl)-3-(3-(2-methoxyethoxy)-5-(trifluoromethyl)phenyl)urea] was tested, and the S35 [3] was “C (0.20 < C ≦ 0.40)”.

For `COc1cc2ncnc(Sc3cccc(NC(=O)Nc4cc(C(C)(C)C)nn4Cc4ccccc4)c3)c2cc1OC` [Ex 358, 1-(1-benzyl-3-tert-butyl-1H-pyrazol-5-yl)-3-(3-(6,7-dimethoxyquinazolin-4-ylthio)phenyl)urea], the S35 [1] was “C (0.20 < C ≦ 0.40)”.

In the case of `COCCOc1cc2ncnc(Sc3cccc(NC(=O)Nc4cc(C(C)C)on4)c3)c2cc1OC` [Ex 232, 1-(5-isopropylisoxazol-3-yl)-3-(3-(6-methoxy-7-(2-methoxyethoxy)quinazolin-4-ylthio)phenyl)urea], the S35 [2] was “C* (0.20 < C ≦ 0.40)”.

For `COc1cc2ncnc(Oc3ccc(Cl)c(NC(=O)Nc4cc(C(C)(C)C)nn4-c4ccc(C)cc4)c3)c2cc1OC` [Ex 298, 1-(3-tert-butyl-1-p-tolyl-1H-pyrazol-5-yl)-3-(2-chloro-5-(6,7-dimethoxyquinazolin-4-yloxy)phenyl)urea], the S35 [1] was “D (D > 0.40)”.

With `COCCOc1cc2ncnc(Oc3cccc(NC(=O)Nc4cc(C(C)C)on4)c3)c2cc1OC` [Ex 206, 1-(5-isopropylisoxazol-3-yl)-3-(3-(6-methoxy-7-(2-methoxyethoxy)quinazolin-4-yloxy)phenyl)urea] the S35 [2] was “C* (0.20 < C ≦ 0.40)”.

`COCCOc1cc2ncnc(Oc3cccc(NC(=O)Nc4cc(C(C)(C)COC)on4)c3)c2cc1OC` [Ex 217, 1-(5-(1-methoxy-2-methylpropan-2-yl)isoxazol-3-yl)-3-(3-(6-methoxy-7-(2-methoxyethoxy)quinazolin-4-yloxy)phenyl)urea] was tested, and the S35 [2] was “C* (0.20 < C ≦ 0.40)”.

In the case of `COc1cc2ncnc(Oc3cccc(NC(=O)Nc4cc(C(C)(C)F)no4)c3)c2cc1OCCCS(C)(=O)=O` [Ex 42, 1-(3-(2-fluoropropan-2-yl)isoxazol-5-yl)-3-(3-(7-methoxy-6-(3-(methylsulfonyl)propoxy)quinazolin-4-yloxy)phenyl)urea], the S35 [4] was “C* (0.20 < C ≦ 0.40)”.

`COCCOc1cc2ncnc(Oc3cccc(NC(=O)Nc4cc(C(C)(CF)CF)on4)c3)c2cc1OC` [Ex 213, 1-[5-(1,3-difluoro-2-methylpropan-2-yl)isoxazol-3-yl]-3-{3-[6-methoxy-7-(2-methoxyethoxy)quinazolin-4-yloxy]phenyl}urea] was tested, and the S35 [2] was “D* (D > 0.40)”.

For `COc1cc2c(Oc3cccc(NC(=O)Nc4cc(C(F)(F)F)nn4-c4ccccc4)c3)ncnc2cc1OCCN1CCOCC1` [Ex 396, 1-(3-(6-Methoxy-7-(2-morpholinoethoxy)quinazolin-4-yloxy)phenyl)-3-(1-phenyl-3-(trifluoromethyl)-1H-pyrazol-5-yl)urea], the S35 [1] was “C (0.20 < C ≦ 0.40)”.

In the case of `COCCOc1cc2ncnc(Oc3cccc(NC(=O)Nc4ccc(C(F)(F)F)c(OC)c4)c3)c2cc1OC` [Ex 223, 1-(3-methoxy-4-(trifluoromethyl)phenyl)-3-(3-(6-methoxy-7-(2-methoxyethoxy)quinazolin-4-yloxy)phenyl)urea], the S35 [2] was “C* (0.20 < C ≦ 0.40)”.

In the case of `COc1cc2ncnc(Oc3cc(NC(=O)Nc4cc(C(C)(CF)CF)on4)ccc3F)c2cc1OC` [Ex 294, 1-(5-(1,3-difluoro-2-methylpropan-2-yl)isoxazol-3-yl)-3-(3-(6,7-dimethoxyquinazolin-4-yloxy)-4-fluorophenyl)urea], the S35 [1] was “D (D > 0.40)”.

`COCCOc1cc2ncnc(Sc3cccc(NC(=O)Nc4cc(C(C)(C)C)nn4-c4ccc(C)cc4)c3)c2cc1OC` [Ex 277, 1-(3-tert-butyl-1-p-tolyl-1H-pyrazol-5-yl)-3-(3-(6-methoxy-7-(2-methoxyethoxy)quinazolin-4-ylthio)phenyl)urea] was tested, and the S35 [1] was “D (D > 0.40)”.

`CCOc1cc2ncnc(Oc3cccc(NC(=O)Nc4cc(C(C)(C)F)no4)c3)c2cc1OC` [Ex 385, 1-(3-(7-ethoxy-6-methoxyquinazolin-4-yloxy)phenyl)-3-(3-(2-fluoropropan-2-yl)isoxazol-5-yl)urea] was tested, and the S35 [1] was “C (0.20 < C ≦ 0.40)”.

In the case of `COc1cc2ncnc(Oc3cccc(NC(=O)Nc4cc(C(C)(C)C)nn4-c4ccc(Cl)cc4)c3)c2cc1OC` [Ex 365, 1-(3-tert-butyl-1-(4-chlorophenyl)-1H-pyrazol-5-yl)-3-(3-(6,7-dimethoxyquinazolin-4-yloxy)phenyl)urea], the S35 [1] was “D (D > 0.40)”.

For `COc1cc2ncnc(Sc3cccc(NC(=O)Nc4cc(C(C)(C)C)nn4-c4cccc(C(F)(F)F)c4)c3)c2cc1OC` [Ex 380, 1-(3-tert-butyl-1-(3-(trifluoromethyl)phenyl)-1H-pyrazol-5-yl)-3-(3-(6,7-dimethoxyquinazolin-4-ylthio)phenyl)urea], the S35 [1] was “C (0.20 < C ≦ 0.40)”.

With `COCCOc1cc2ncnc(Oc3cccc(NC(=O)Nc4cc(C(F)(F)F)nn4-c4ccccc4)c3)c2cc1OC` [Ex 221, 1-{3-[6-methoxy-7-(2-methoxyethoxy)quinazolin-4-yloxy]phenyl}-3-[1-phenyl-3-(trifluoromethyl)-1H-pyrazol-5-yl]urea] the S35 [2] was “C* (0.20 < C ≦ 0.40)”.

With `COc1cc2ncnc(Sc3cccc(NC(=O)Nc4cc(C(C)(C)C#N)no4)c3)c2cc1OC` [Ex 381, 1-(3-(2-cyanopropan-2-yl)isoxazol-5-yl)-3-(3-(6,7-dimethoxyquinazolin-4-ylthio)phenyl)urea] the S35 [1] was “C (0.20 < C ≦ 0.40)”.

For `COc1cc2ncnc(Sc3cccc(NC(=O)Nc4cc(C5(C(F)(F)F)CC5)nn4-c4ccccc4)c3)c2cc1OC` [Ex 383, 1-(3-(6,7-dimethoxyquinazolin-4-ylthio)phenyl)-3-(1-phenyl-3-(1-(trifluoromethyl)cyclopropyl)-1H-pyrazol-5-yl)urea], the S35 [1] was “C (0.20 < C ≦ 0.40)”.

In the case of `COc1cc2ncnc(Oc3cccc(NC(=O)Nc4cc(C(C)(CF)CF)no4)c3)c2cc1OC` [Ex 159, 1-[3-(1,3-difluoro-2-methylpropan-2-yl)isoxazol-5-yl]-3-[3-(6,7-dimethoxyquinazolin-4-yloxy]phenyl)urea], the S35 [4] was “D* (D > 0.40)”.

`COc1cc2ncnc(Oc3ccc(F)c(NC(=O)Nc4cc(C(C)(C)C)on4)c3)c2cc1OC` [Ex 367, 1-(5-tert-butylisoxazol-3-yl)-3-(5-(6,7-dimethoxyquinazolin-4-yloxy)-2-fluorophenyl)urea] was tested, and the S35 [1] was “D (D > 0.40)”.

In the case of `COc1cc2ncnc(Oc3cccc(NC(=O)Nc4cc(C(C)(C)C)nn4-c4ccc(C)cc4)c3)c2cc1OC` [Ex 274, 1-(3-tert-butyl-1-p-tolyl-1H-pyrazol-5-yl)-3-(3-(6,7-dimethoxyquinazolin-4-yloxy)phenyl)urea], the S35 [1] was “D (D > 0.40)”.

With `COCCOc1cc2ncnc(Oc3cccc(NC(=O)Nc4cc(C(C)C)no4)c3)c2cc1OC` [Ex 215, 1-(3-isopropylisoxazol-5-yl)-3-(3-(6-methoxy-7-(2-methoxyethoxy)quinazolin-4-yloxy)phenyl)urea] the S35 [2] was “C* (0.20 < C ≦ 0.40)”.

For `COc1cc2ncnc(Oc3cc(NC(=O)Nc4cc(C(C)(C)C)nn4-c4ccc(C)cc4)c(F)cc3F)c2cc1OC` [Ex 272, 1-(3-tert-butyl-1-p-tolyl-1H-pyrazol-5-yl)-3-(5-(6,7-dimethoxyquinazolin-4-yloxy)-2,4-difluorophenyl)urea], the S35 [1] was “D (D > 0.40)”.

`COc1cc2ncnc(Sc3cccc(NC(=O)Nc4cc(C(C)(C)C)nn4-c4ccccc4F)c3)c2cc1OC` [Ex 371, 1-(3-tert-butyl-1-(2-fluorophenyl)-1H-pyrazol-5-yl)-3-(3-(6,7-dimethoxyquinazolin-4-ylthio)phenyl)urea] was tested, and the S35 [1] was “D (D > 0.40)”.

With `COc1cc2ncnc(Sc3cccc(NC(=O)Nc4cc(C(C)(C)F)no4)c3)c2cc1OCCCN1CCS(=O)(=O)CC1` [Ex 245, 1-(3-(2-fluoropropan-2-yl)isoxazol-5-yl)-3-(3-(7-methoxy-6-(4,4-dioxo-3-thiomorpholinopropoxy)quinazolin-4-ylthio)phenyl)urea] the S35 [2] was “C* (0.20 < C ≦ 0.40)”.

For `CCOc1cc2ncnc(Sc3cccc(NC(=O)Nc4cc(C(C)(C)F)no4)c3)c2cc1OC` [Ex 389, 1-(3-(7-ethoxy-6-methoxyquinazolin-4-ylthio)phenyl)-3-(3-(2-fluoropropan-2-yl)isoxazol-5-yl)urea], the S35 [1] was “C (0.20 < C ≦ 0.40)”.
